Measured values reported in patent US20180057547A1, “DIAGNOSTIC AND THERAPEUTIC EPITOPE, AND TRANSGENIC PLANT” (OXFORD UNIVERSITY INNOVATION LIMITED, priority 1999, published 2018).
Entries after “also recorded” stand apart in the source; their conditions may differ.

Experiments:
[1] = system: PBMC from coeliac subjects; assay: IFNγ ELISPOT with PBMC of coeliac disease subjects after bread/gluten challenge; type: cell-based, human; settings: for % bioactivity compared to unmodified A-gliadin 57-73 QE65 / greater bioactivity than the parent peptide: 50 mcg/ml; for % bioactivity compared to unmodified A-gliadin 57-73 QE65: PBMC from 8 subjects, mean response as % A-G 57-73 QE65 mean response, blank 7.1%; for Mean response as % of the response to the immunodominant epitope: 57-73 A-gliadin epitope substituted at position 65, synthetic peptides 50 μg/ml, 3 coeliac subjects, 6 days after commencing gluten challenge; for % agonist.: agonist activity compared to A-gliadin 57-73 QE65 as shown in Table 9; for ELISpot response as % A-gliadin 57-73 QE65, E-substituted: glutamate-substituted peptide; for ELISpot response as % A-gliadin 57-73 QE65, E-substituted / ELISpot response as % A-gliadin 57-73 QE65, Wildtype + tTG / ELISpot response as % A-gliadin 57-73 QE65, Wild type: 25 mcg/ml, 4 subjects, blank 5 (1) %; for ELISpot response as % A-gliadin 57-73 QE65, Wildtype + tTG: tTG-treated wild type peptide; for ELISpot response as % A-gliadin 57-73 QE65, Wild type: unmodified gliadin peptide; for Elisopt response TG: peptide treated with transglutaminase; for Elisopt response TG / Elisopt response No TG: mean (range), 3 subjects, as in Example 2; for Elisopt response No TG: peptide without transglutaminase treatment; for greater bioactivity than the parent peptide: parent A-gliadin 57-73 QE65
[2] = system: PBMC from coeliac volunteers; assay: Antagonism of A-gliadin 57-73 QE65 interferon gamma ELISPOT response (simultaneous addition of peptide); type: cell-based, human
Experimental: Simultaneous addition of peptide (50 μg/ml) or buffer and A-gliadin 57-73 QE65 (10 μg/ml) in IFNgamma ELISPOT using PBMC from coeliac volunteers 6 days after commencing 3 day gluten challenge (n=5). Results were expressed as response with peptide plus A-G 57-73 QE65 (mean of duplicates) as % response with buffer plus A-G 57-73 QE65 (mean of 20 replicates). (See Table 9).

[3] = system: gluten-specific T cell clones and lines; settings: from original publications; iTCC intestinal T cell clone, iTCL intestinal polyclonal T cell line, bTCC peripheral blood T cell clone; NS not given; cited from earlier work
[4] = system: CD4 or CD8 depleted PBMC from coeliac disease subjects; assay: IFNγ ELISPOT with CD4 and CD8 magnetic bead depleted PBMC; type: cell-based, human
Experimental: Anti-CD4 or anti-CD8 coated magnetic beads (Dynal, Oslo, Norway) were washed four times with RPMI then incubated with PBMC in complete RPMI containing 10% heat inactivated human AB serum (5×10^6 cells/ml) for 30 minutes on ice. Beads were removed using a magnet and cells remaining counted. […] HLA-class II restriction of the immune response to tTG-treated A-gliadin 56-75 was established by incubating PBMC (5×10^6 cells/ml) with anti-HLA-DR (L243), -DQ (L2), and -DP (B7.21) monoclonal antibodies (10 μg/ml) at room temperature for one hour prior to the addition of peptide.

[5] = system: PBMC from newly diagnosed coeliac subjects; assay: Interferon gamma ELISpot with PBMC of newly diagnosed coeliac subjects, gluten challenge after short GFD; type: cell-based, human; settings: 25 mcg/ml
Experimental: Newly diagnosed DQ2+ coeliac subjects were recruited from the gastroenterology outpatient service. PBMC were prepared and tested in interferon gamma ELISpot assays before subjects commenced GFD, and at one or two weeks after commencing GFD. In addition, gluten challenge (3 days consuming 4 slices standard white bread, 200 g/day) was performed at one or two weeks after starting GFD. PBMC were prepared and assayed on day six are after commencing gluten challenge. A-gliadin 57-73 QE65 (A), P04724 84-100 QE92 (B) (alone and combined) and A-gliadin 57-73 QP65 (P65) (non-bioactive variant, see above) (all 25 mcg/ml) were assessed.

[6] = substituted variant 50 μg/ml plus A-gliadin 57-73 QE65 10 μg/ml, n=5
[7] = coeliacs who had followed GFD for only one week
[8] = gluten challenge 2 weeks after commencing GFD, compared with A-gliadin 57-73 QP65 and blank
[9] = naturally occurring polymorphisms of A-gliadin 57-73 QE65, 50 μg/ml plus A-gliadin 57-73 QE65 10 μg/ml

N[C@@H](CS)C(=O)O [C65]
% bioactivity compared to unmodified A-gliadin 57-73 QE65 [1]: 42% | Mean response as % of the response to the immunodominant epitope [1]: 62%

N[C@@H](CC(=O)O)C(=O)O [D65]
% bioactivity compared to unmodified A-gliadin 57-73 QE65 [1]: 95% | Mean response as % of the response to the immunodominant epitope [1]: 65%

N[C@@H](Cc1c[nH]cn1)C(=O)O [H65]
% Inhibit. of A-gliadin 57-73 QE65 interferon gamma ELISpot response [2, 6]: 20% | % bioactivity compared to unmodified A-gliadin 57-73 QE65 [1]: 26% | Mean response as % of the response to the immunodominant epitope ([1]; listed as Histidine): 8% | % agonist. [1]: 16%

NCCCC[C@H](N)C(=O)O [K65]
% Inhibit. of A-gliadin 57-73 QE65 interferon gamma ELISpot response [2, 6]: 15% | % bioactivity compared to unmodified A-gliadin 57-73 QE65 [1]: 8% | Mean response as % of the response to the immunodominant epitope ([1]; listed as Lysine): 4% | % agonist. [1]: 8%

CC(C)C[C@H](N)C(=O)O [L65]
% Inhibit. of A-gliadin 57-73 QE65 interferon gamma ELISpot response [2, 6]: 20% | % bioactivity compared to unmodified A-gliadin 57-73 QE65 [1]: 16% | Mean response as % of the response to the immunodominant epitope [1]: 33% | % agonist. [1]: 26%

N=C(N)NCCC[C@H](N)C(=O)O [R65]
% Inhibit. of A-gliadin 57-73 QE65 interferon gamma ELISpot response [2, 6]: 13% | % bioactivity compared to unmodified A-gliadin 57-73 QE65 [1]: 11% | Mean response as % of the response to the immunodominant epitope ([1]; listed as Arginine): 1% | % agonist. [1]: 11%

C[C@@H](O)[C@H](N)C(=O)O [T65]
% Inhibit. of A-gliadin 57-73 QE65 interferon gamma ELISpot response [2, 6]: 28% | % bioactivity compared to unmodified A-gliadin 57-73 QE65 [1]: 7% | Mean response as % of the response to the immunodominant epitope [1]: 55% | % agonist. [1]: 19%

N[C@@H](Cc1ccc(O)cc1)C(=O)O [Y65]
% Inhibit. of A-gliadin 57-73 QE65 interferon gamma ELISpot response [2, 6]: 12% | Mean response as % of the response to the immunodominant epitope ([1]; listed as Tyrosine): 8% | % agonist. [1]: 7%

GQQGYYPTSPQQSGQ
Frequency [3]: 1/1 (iTCC)

LGQQQPFPPQQPYPQPQPF
Frequency [3]: 1/23 (bTCC)

LQLQPFPQPQLPYPQPQSFP [A-gliadin 56-75, 20mer of A-gliadin, used tTG-treated]
spot forming cells per million CD8 depleted PBMC ([4]; Subject 4, tTG treated peptide 0.1 μM): 29 spot forming cells per million CD8 depleted PBMC | spot forming cells per million CD8 depleted PBMC ([4]; Subject 6, tTG treated peptide 0.1 μM): 535 spot forming cells per million CD8 depleted PBMC | cell subset mediating the IFNγ response ([4]; anti-CD4 and anti-CD8 magnetic bead depletion, two subjects): CD4 T cell-mediated

PQLPYPQPELPYPQPQP [P04724 84-100 QE92, glutamate-substituted polymorphism GDA4_WHEAT P04724 84-100 (K)]
responses after gluten challenge [5, 7]: did not substantially enhance responses | responses after gluten challenge [5, 8]: did induce responses | ELISpot response as % A-gliadin 57-73 QE65, E-substituted [1]: 69 (20) % | ELISpot response as % A-gliadin 57-73 QE65, Wildtype + tTG [1]: 80 (17) % | ELISpot response as % A-gliadin 57-73 QE65, Wild type [1]: 14 (4) %

PQLPYPQPQLPYPQPQP
Elisopt response TG [1]: 109 (41-152) | Elisopt response No TG [1]: 3 (0-7)

PQPELPYPQPELPY [reference compound]
Frequency [3]: 11/17 (iTCL) | ELISpot response as % A-gliadin 57-73 QE65, E-substituted [1]: 48 (9) % | ELISpot response as % A-gliadin 57-73 QE65, Wildtype + tTG [1]: 53 (8) % | ELISpot response as % A-gliadin 57-73 QE65, Wild type [1]: 13 (6) %

PQPQPFLPELPYPQPQS [P04727 79-95 QE65, glutamate-substituted polymorphism GDA7_WHEAT P04727 79-95 (M)]
% Inhibit. of A-gliadin 57-73 QE65 interferon gamma ELISpot response [2, 9]: 6%

PQPQPFLPQLPYPQPQS
Elisopt response TG [1]: 21 (11-33) | Elisopt response No TG [1]: 10 (0-30)

PQPQPFPPELPYPQPPP [P04726 82-98 QE90, glutamate-substituted polymorphism GDA6_WHEAT P04726 82-98 (P)]
% Inhibit. of A-gliadin 57-73 QE65 interferon gamma ELISpot response [2, 9]: 5%

PQPQPFPPELPYPQPQS [P04725 82-98 QE90, glutamate-substituted polymorphism GDA5_WHEAT P04725 82-98 (N)]
% Inhibit. of A-gliadin 57-73 QE65 interferon gamma ELISpot response [2, 9]: 19%

PQPQPFPPELPYPQTQP [P04723 77-93 QE85, glutamate-substituted polymorphism GDA3_WHEAT P04723 77-93 (O)]
% Inhibit. of A-gliadin 57-73 QE65 interferon gamma ELISpot response [2, 9]: 10%

PQPQPFPPQLPYPQPPP
Elisopt response TG [1]: 19 (11-33) | Elisopt response No TG [1]: 10 (0-30)

PQPQPFPPQLPYPQPQS
Elisopt response TG [1]: 24 (11-43) | Elisopt response No TG [1]: 17 (0-40)

QLQPFLQPELPYSQPQP [Q41509 77-93 QE85, glutamate-substituted polymorphism Q41509 77-93]
% Inhibit. of A-gliadin 57-73 QE65 interferon gamma ELISpot response ([2]; naturally occurring polymorphisms of A-gliadin 57-73 QE65, 50 μg/ml plus A-gliadin 57-73 QE65 10 μg/ml, polymorphism SEQ ID NO 71): 11% | % Inhibit. of A-gliadin 57-73 QE65 interferon gamma ELISpot response ([2]; naturally occurring polymorphisms of A-gliadin 57-73 QE65, 50 μg/ml plus A-gliadin 57-73 QE65 10 μg/ml, polymorphism SEQ ID NO 76): 6%

QLQPFLQPQLPYSQPQP
Elisopt response TG [1]: 3 (0-7) | Elisopt response No TG [1]: 0 (0-1)

QLQPFPQPELPY [reference compound]
Frequency [3]: 12/17 (iTCL) | ELISpot response as % A-gliadin 57-73 QE65, E-substituted [1]: 8 (3) % | ELISpot response as % A-gliadin 57-73 QE65, Wildtype + tTG [1]: 19 (1) % | ELISpot response as % A-gliadin 57-73 QE65, Wild type [1]: 6 (2) %

QLQPFPQPELPYPQPQS (listed as Triticum sp.) [A-gliadin 57-73 QE65]
responses after gluten challenge [5, 7]: did not substantially enhance responses | responses after gluten challenge [5, 8]: did induce responses | Mean response as % of the response to the immunodominant epitope [1]: 100% | IFNγ ELISPOT response (result in words) ([1]; PBMC after 3 day bread/gluten challenge): induced maximal responses; also recorded: most potent gliadin peptide for induction of interferon gamma | ELISpot response as % A-gliadin 57-73 QE65, E-substituted [1]: 100% | Frequency ([1]; in vivo (gluten challenge), DQ2): 11/12 in vivo | Elisopt response TG [1]: 100 (100) | ELISpot response as % A-gliadin 57-73 QE65, Wildtype + tTG [1]: 87 (7) % | ELISpot response as % A-gliadin 57-73 QE65, Wild type [1]: 18 (7) %

QLQPFPQPELPYSQPQP [P02863 77-93 QE85, glutamate-substituted polymorphism GDA0_WHEAT P02863 77-93 (F)]
% Inhibit. of A-gliadin 57-73 QE65 interferon gamma ELISpot response [2, 9]: 6%

QLQPFPQPELSYSQPQP [Gliα 3-5 57-73 QE65, glutamate-substituted polymorphism Gli alpha 3,4, 5 57-73 (I)]
% Inhibit. of A-gliadin 57-73 QE65 interferon gamma ELISpot response [2, 9]: 7%

QLQPFPQPQLPYPQPQL
Elisopt response TG [1]: 83 (74-97) | Elisopt response No TG [1]: 19 (0-33)

QLQPFPQPQLPYPQPQP
Elisopt response TG [1]: 83 (61-113) | Elisopt response No TG [1]: 12 (0-20)

QLQPFPQPQLPYSQPQP
Elisopt response TG [1]: 53 (44-67) | Elisopt response No TG [1]: 5 (1-7)

QLQPFSQPQLPYSQPQP
Elisopt response TG [1]: 2 (0-7) | Elisopt response No TG [1]: 0 (0-0)

QPQPFPPPELPYPQTQP [Gliα 1,6 58-74 QE66, glutamate-substituted polymorphism Gli alpha 1, 6 58-74 (J)]
% Inhibit. of A-gliadin 57-73 QE65 interferon gamma ELISpot response [2, 9]: 11%

QQLPQPEQPQQSFPEQERPF [reference compound]
ELISpot response as % A-gliadin 57-73 QE65, E-substituted [1]: 10 (5) % | ELISpot response as % A-gliadin 57-73 QE65, Wildtype + tTG [1]: 18 (7) % | ELISpot response as % A-gliadin 57-73 QE65, Wild type [1]: 9 (3) %

QQYPSGEGSFQPSQENPQ [reference compound]
ELISpot response as % A-gliadin 57-73 QE65, E-substituted [1]: 14 (8) % | ELISpot response as % A-gliadin 57-73 QE65, Wildtype + tTG [1]: 9 (3) % | ELISpot response as % A-gliadin 57-73 QE65, Wild type [1]: 10 (3) %

Y61: A-gliadin 57-73 QE65 variant, Y at position 61 (QLQPYPQPELPYPQPQS)
% bioactivity compared to unmodified A-gliadin 57-73 QE65 [1]: 129% | greater bioactivity than the parent peptide [1]: 30%

Y70: A-gliadin 57-73 QE65 variant, Y at position 70 (QLQPFPQPELPYPYPQS)
% bioactivity compared to unmodified A-gliadin 57-73 QE65 [1]: 129% | greater bioactivity than the parent peptide [1]: 30%
